Experiments:
[1] = system: Adjuvant arthritis (AA) in female Lewis rats; assay: Treatment of adjuvant arthritis in rats; format: in vivo, rat; details: 20 mg/kg dose, orally once a day for 7 days (day 7-14)
Protocol: Adjuvant arthritis (AA) was induced in female Lewis rats by the intracutaneous injection (base of the tail) of 0.1 mL of a 10 mg/mL bacterial suspension made from ground, heat-killed Mycobacterium tuberculosis H37Ra suspended in incomplete Freund's adjuvant. Rats were given a test compound orally once a day for 7 days (day 7-14), starting day 7 after mycobacterium induction. The development of polyarthritis was monitored daily by macroscopic inspection and assignment of an arthritis index to each animal, during the critical period (days 10 to 25 post-immunization).
The intensity of polyarthritis was scored according to the following scheme: (a) Grade each paw from 0 to 3 based on erythema, swelling, and deformity of the joints: 0 for no erythema or swelling; 0.5 if swelling is detectable in at least one joint; 1 for mild swelling and erythema; 2 for swelling and erythema of both tarsus and carpus; and 3 for ankylosis and bony deformity. Maximum score for all 4 paws is thus 12. (b) Grade for other parts of the body: for each ear, 0.5 for redness and another 0.5 if knots are present; 1 for connective tissue swelling (saddle nose); and 1 for the presence of knots or kinks in the tail. The highest possible arthritic index is 16.
Experiments with the AA model were repeated four times. […] The arthritis score used in this model is a reflection of the inflammatory state of the structures monitored and the results therefore show the ability of the test compound to provide relief for this aspect of the pathology.

IL-12 = assay: Human in vitro assay: inhibition of IL-12 production in stimulated human PBMC or THP-1 cells (ELISA); format: cell-based; details: read-out: IC50 Range (in vitro IC50 for IL-12)
From the text: The biological activities of a compound of the invention can be evaluated by a number of cell-based assays. One of such assays can be conducted using cells from human peripheral blood mononuclear cells (PBMC) or human monocytic cell line (THP-1). The cells are stimulated with a combination of human interferon-γ (IFNγ) and lipopolysaccharide or a combination of IFNγ and Staphylococcus aureus Cowan I in the presence of a test compound. The level of inhibition of IL-12 production can be measured by determining the amount of p70 by using a sandwich ELISA assay with anti-human IL-12 antibodies. IC50 of the test compound can then be determined. Specifically, PBMC or THP-1 cells are incubated with the test compound. Cell viability was assessed using the bioreduction of MTS [3-(4,5-dimethylthiazol-2-yl)-5-(3-carboxymethoxyphenyl)-2-(4-sulfophenyl)-2H-tetrazolium] (Promega, Madison, Wis.).
8. Reagents. Staphylococcus aureus Cowan I (SAC) was obtained from Calbiochem (La Jolla, Calif.), and lipopolysaccharide (LPS, Serratia marscencens) was obtained from Sigma (St. Louis, Mo.). Human and mouse recombinant IFNγ were purchased from Boehringer Mannheim (Mannheim, Germany) and Pharmingen (San Diego, Calif.), respectively.
9. Human In Vitro Assay. Human PBMC were isolated by centrifugation using Ficoll-Paque (Pharmacia Biotech, Uppsala, Sweden) and prepared in RPMI medium supplemented with 10% fetal calf serum (FCS), 100 U/mL penicillin, and 100 μg/mL streptomycin. PBMC were plated in wells of a 96-well plate at a concentration of 5×10^5 cells/well, and primed by adding IFNγ (30 U/mL) for 22 h and stimulated by adding LPS (1 μg/mL), or by adding IFNγ (100 U/mL) and then stimulated by adding SAC (0.01%). A test pyrimidine compound was dissolved in DMSO, and added to wells of the 96-well plate. The final DMSO concentration was adjusted to 0.25% in all cultures, including the compound-free control. Human THP-1 cells were plated in wells, primed by adding IFNγ (100 U/mL) for 22 h and stimulated by adding SAC (0.025%) in the presence of different concentrations of the pyrimidine compound. Cell-free supernatants were taken 18 h later for measurement of cytokines. Cell viability was assessed using the bioreduction of MTS. Cell survival was estimated by determining the ratio of the absorbance in compound-treated groups versus compound-free control.
10. The supernatant was assayed for the amount of […], IL-12p70, or IL-10 by using a sandwich ELISA with anti-human antibodies, i.e., a Human IL-12 p40 ELISA kit from R&D Systems (Berkeley, Calif.), and a Human IL-12 p70 or IL-10 ELISA kit from Endogen (Cambridge, Mass.). Assays were based on the manufacturer's instructions.
The biological activities of compounds of the invention were tested on human PBMC or THP-1 cells.

COc1ccc2c(c1)/C(=N/Nc1cc(N3CCOCC3)nc(OCCN3CCOCC3)n1)CC2 [Compound 9, N-(6-Methoxy-indan-1-ylidene)-N′-[6-morpholin-4-yl-2-(2-morpholin-4-yl-ethoxy)-pyrimidin-4-yl]-hydrazine]
percent reduction in arthritic score [1]: 24% | IC50 (IL-12): < 1000 nM

Source: patent US20060281711A1, “IL-12 modulatory compounds” (Synta Pharmaceuticals Corp., priority 2005, published 2006)
